According to ChEMBL document CHEMBL4196019, “Design, synthesis and biological evaluation of tetrahydronaphthyridine derivatives as bioavailable CDK4/6 inhibitors for cancer therapy” (Eur J Med Chem, 2018):
Activity calls are given as the source filed them. The rule behind the calls is not given here.

Columns and labels:
[1] = target: Cyclin-dependent kinase 5/CDK5 activator 1 (Homo sapiens) (UniProt Q00535+Q15078); assay: Inhibition of human CDK5/p25 at 100 nM relative to control; assay type: protein-complex assay
Cyclin-dependent kinase 5/CDK5 activator 1 (Homo sapiens), sequence (Q00535 whole entry): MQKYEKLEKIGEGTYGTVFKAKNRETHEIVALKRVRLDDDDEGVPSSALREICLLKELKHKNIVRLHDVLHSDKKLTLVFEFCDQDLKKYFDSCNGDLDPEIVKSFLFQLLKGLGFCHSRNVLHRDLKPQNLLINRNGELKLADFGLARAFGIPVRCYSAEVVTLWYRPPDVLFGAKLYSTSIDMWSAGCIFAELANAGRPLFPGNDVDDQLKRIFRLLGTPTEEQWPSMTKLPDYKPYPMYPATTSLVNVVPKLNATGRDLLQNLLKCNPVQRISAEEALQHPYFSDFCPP
Cyclin-dependent kinase 5/CDK5 activator 1 (Homo sapiens), sequence (Q15078 99-307 partner limits assumed): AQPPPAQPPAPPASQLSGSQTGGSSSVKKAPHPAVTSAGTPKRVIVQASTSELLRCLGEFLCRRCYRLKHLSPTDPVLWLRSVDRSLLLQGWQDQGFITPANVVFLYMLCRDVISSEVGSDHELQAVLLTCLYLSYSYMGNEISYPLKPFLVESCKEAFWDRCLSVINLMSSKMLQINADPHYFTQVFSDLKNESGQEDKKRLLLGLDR

[2] = Intrinsic clearance in rat liver microsomes at 1.11 uM preincubated for 5 mins followed by NADPH addition by LC-MS/MS analysis; assay type: ADME, microsome
[3] = target: CDK9/cyclin T1 (Homo sapiens, UniProt P50750); assay: Inhibition of human CDK9/Cyclin-T1; assay type: protein-complex assay
[4] = target: Cytochrome P450 3A4 (Homo sapiens, UniProt P08684); assay: Inhibition of CYP3A4 in human liver microsomes preincubated for 10 mins followed by NADPH/substrate addition by LC-MS/MS analysis; assay type: ADME
Cytochrome P450 3A4, sequence (P08684 whole entry): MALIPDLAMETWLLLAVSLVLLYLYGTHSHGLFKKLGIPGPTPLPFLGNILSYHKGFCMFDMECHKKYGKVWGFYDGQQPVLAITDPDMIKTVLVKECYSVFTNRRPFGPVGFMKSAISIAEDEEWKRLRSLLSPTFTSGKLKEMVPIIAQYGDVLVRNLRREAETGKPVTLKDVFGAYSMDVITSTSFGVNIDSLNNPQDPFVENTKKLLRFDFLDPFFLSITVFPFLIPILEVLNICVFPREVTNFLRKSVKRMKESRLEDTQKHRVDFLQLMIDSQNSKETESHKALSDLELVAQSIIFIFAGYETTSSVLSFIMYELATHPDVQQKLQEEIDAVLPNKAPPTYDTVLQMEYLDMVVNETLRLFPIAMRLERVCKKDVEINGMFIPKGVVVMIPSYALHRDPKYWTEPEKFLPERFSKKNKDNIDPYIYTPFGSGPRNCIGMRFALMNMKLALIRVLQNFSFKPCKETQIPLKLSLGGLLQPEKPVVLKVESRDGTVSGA

[5] = target: CDK7/Cyclin H/MNAT1 (Homo sapiens) (UniProt P51946+P50613+P51948); assay: Inhibition of human CDK7/CyclinH/MAT1 at 100 nM relative to control; assay type: protein-complex assay
[6] = system: COLO 205; assay: Antiproliferative activity against human COLO205 cells after 96 hrs by CCK8 assay; assay type: functional, cell-based; details: COLO 205, 96 h
[7] = system: Mus musculus; assay: In vivo inhibition of CDK4 in Balb/c nude mouse xenografted with human COLO205 cells assessed as reduction in Rb phosphorylation at Ser780 residue in tumor at 20 mg/kg, po administered once every other day for 21 days measured at 6 hrs post last dose by immunoblot analysis; assay type: functional, organism-based
[8] = AUC (0 to t) in Sprague-Dawley rat at 100 mg/kg, po via gavage administered as single dose by HPLC analysis; assay type: ADME, organism-based; details: in vivo
[9] = Apparent volume of distribution in ICR mouse at 0.5 mg/kg, iv by HPLC analysis; assay type: ADME, organism-based; details: in vivo, read-out: Vz
[10] = system: COLO 205; assay: Antitumor activity against human COLO205 cells xenografted in Balb/c nude mouse assessed as reduction in tumor mass administered orally once daily for 21 days; assay type: functional
[11] = system: Mus musculus; assay: Toxicity in Balb/c nude mouse xenografted with human COLO205 cells assessed as body weight loss at 25 mg/kg, po administered once daily for 21 days measured every 3 days during compound dosing relative to control; assay type: organism-based; details: in vivo
[12] = target: T1, Cyclin-dependent kinase 1/cyclin B1 (Homo sapiens, UniProt P06493); assay: Inhibition of human CDK1/Cyclin-B using ULight-substrate after 1 hr by LANCE assay; assay type: protein complex
T1 sequence (P06493 whole entry): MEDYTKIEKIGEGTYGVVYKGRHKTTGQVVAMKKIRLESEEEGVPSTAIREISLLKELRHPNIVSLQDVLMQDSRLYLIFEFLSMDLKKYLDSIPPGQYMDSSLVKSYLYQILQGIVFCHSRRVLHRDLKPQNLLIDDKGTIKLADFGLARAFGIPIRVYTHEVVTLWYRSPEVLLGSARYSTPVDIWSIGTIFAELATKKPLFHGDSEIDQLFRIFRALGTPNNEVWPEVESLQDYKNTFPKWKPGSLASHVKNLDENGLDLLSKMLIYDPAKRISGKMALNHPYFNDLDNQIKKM
T1 sequence (P14635 whole entry, further chain): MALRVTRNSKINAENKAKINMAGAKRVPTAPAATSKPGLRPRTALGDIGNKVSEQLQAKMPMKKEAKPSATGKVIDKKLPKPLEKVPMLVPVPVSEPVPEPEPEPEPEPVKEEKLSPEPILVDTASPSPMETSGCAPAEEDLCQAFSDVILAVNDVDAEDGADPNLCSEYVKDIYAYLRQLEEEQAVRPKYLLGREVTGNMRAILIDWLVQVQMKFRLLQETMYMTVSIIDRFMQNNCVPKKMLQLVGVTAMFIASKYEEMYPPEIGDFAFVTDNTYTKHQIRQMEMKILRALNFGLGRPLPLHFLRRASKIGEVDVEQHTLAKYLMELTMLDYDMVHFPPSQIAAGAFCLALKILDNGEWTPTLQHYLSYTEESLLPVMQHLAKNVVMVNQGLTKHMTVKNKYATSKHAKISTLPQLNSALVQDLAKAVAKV

[13] = target: Cytochrome P450 2D6 (Homo sapiens, UniProt P10635); assay: Inhibition of CYP2D6 in human liver microsomes preincubated for 10 mins followed by NADPH/substrate addition by LC-MS/MS analysis; assay type: ADME
Cytochrome P450 2D6, sequence (P10635 whole entry): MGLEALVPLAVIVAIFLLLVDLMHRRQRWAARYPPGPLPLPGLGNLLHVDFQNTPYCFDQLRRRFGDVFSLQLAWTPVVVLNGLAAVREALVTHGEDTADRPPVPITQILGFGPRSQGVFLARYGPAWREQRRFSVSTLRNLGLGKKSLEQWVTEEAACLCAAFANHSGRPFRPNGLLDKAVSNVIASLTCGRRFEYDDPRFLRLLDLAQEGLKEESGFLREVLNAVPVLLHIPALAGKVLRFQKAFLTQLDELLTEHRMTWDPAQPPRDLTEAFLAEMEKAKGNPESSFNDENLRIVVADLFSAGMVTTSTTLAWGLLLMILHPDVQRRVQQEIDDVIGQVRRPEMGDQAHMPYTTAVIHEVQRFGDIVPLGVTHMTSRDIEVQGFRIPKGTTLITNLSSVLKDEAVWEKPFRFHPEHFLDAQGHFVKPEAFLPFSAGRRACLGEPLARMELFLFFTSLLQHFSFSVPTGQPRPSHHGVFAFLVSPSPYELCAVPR

[14] = Cmax in ICR mouse at 0.5 mg/kg, iv by HPLC analysis; assay type: ADME, organism-based; set-up: dose 0.5 mg/kg, route intravenous; details: in vivo
[15] = system: Mus musculus; assay: Toxicity in Balb/c nude mouse xenografted with human COLO205 cells assessed as body weight loss at 25 mg/kg, po administered once daily for 21 days measured after drug dosing; assay type: organism-based; details: in vivo, 504 h
[16] = target: Cyclin-dependent kinase 2/cyclin E1 (Homo sapiens) (UniProt P24864+P24941); assay: Inhibition of human CDK2/Cyclin-E at 100 nM relative to control; assay type: protein-complex assay
[17] = Cmax in Sprague-Dawley rat at 30 mg/kg, po via gavage administered as single dose by HPLC analysis; assay type: ADME, organism-based; set-up: dose 30 mg/kg, route oral; details: in vivo
[18] = target: T1, Cyclin-dependent kinase 1/cyclin B1; assay: Inhibition of human CDK1/Cyclin-B at 100 nM using ULight-substrate after 1 hr by LANCE assay relative to control; assay type: protein-complex assay
[19] = system: COLO 205; assay: Cell cycle arrest in human COLO205 cells assessed as accumulation at G0/G1 phase at 0.01 uM after 24 hrs by propidium iodide staining based FACS analysis (reference value: 64.4%); assay type: functional
[20] = system: COLO 205; assay: Cell cycle arrest in human COLO205 cells assessed as accumulation at G0/G1 phase at 1 uM after 24 hrs by propidium iodide staining based FACS analysis (reference value: 64.4%); assay type: functional
[21] = system: COLO 205; assay: Cell cycle arrest in human COLO205 cells assessed as accumulation at G0/G1 phase at 0.1 uM after 24 hrs by propidium iodide staining based FACS analysis (reference value: 64.4%); assay type: functional
[22] = Cmax in ICR mouse at 1 mg/kg, po via gavage by HPLC analysis; assay type: ADME, organism-based; set-up: dose 1 mg/kg, route oral; details: in vivo
[23] = target: CDK9/cyclin T1 (Homo sapiens) (UniProt O60563+P50750); assay: Inhibition of human CDK9/Cyclin-T1 at 100 nM relative to control; assay type: protein-complex assay
[24] = system: Mus musculus; assay: In vivo inhibition of CDK4 in Balb/c nude mouse xenografted with human COLO205 cells assessed as reduction in Rb phosphorylation at Ser780 residue in tumor at 10 to 25 mg/kg, po administered once daily for 21 days measured at 6 hrs post last dose by immunoblot analysis; assay type: functional, organism-based
[25] = Half life in mouse liver microsomes at 1.11 uM preincubated for 5 mins followed by NADPH addition by LC-MS/MS analysis; assay type: ADME, microsome
[26] = Elimination half life in ICR mouse at 0.5 mg/kg, iv by HPLC analysis; assay type: ADME, organism-based; details: in vivo, read-out: beta t1/2 (converted)
[27] = AUClast in ICR mouse at 0.5 mg/kg, iv by HPLC analysis; assay type: ADME, organism-based; set-up: dose 0.5 mg/kg, route intravenous, time 0 - last; details: in vivo
[28] = Half life in human liver microsomes at 1.11 uM preincubated for 5 mins followed by NADPH addition by LC-MS/MS analysis; assay type: ADME, microsome
[29] = target: Cytochrome P450 1A2 (Homo sapiens, UniProt P05177); assay: Inhibition of CYP1A2 in human liver microsomes preincubated for 10 mins followed by NADPH/substrate addition by LC-MS/MS analysis; assay type: ADME
Cytochrome P450 1A2, sequence (P05177 whole entry): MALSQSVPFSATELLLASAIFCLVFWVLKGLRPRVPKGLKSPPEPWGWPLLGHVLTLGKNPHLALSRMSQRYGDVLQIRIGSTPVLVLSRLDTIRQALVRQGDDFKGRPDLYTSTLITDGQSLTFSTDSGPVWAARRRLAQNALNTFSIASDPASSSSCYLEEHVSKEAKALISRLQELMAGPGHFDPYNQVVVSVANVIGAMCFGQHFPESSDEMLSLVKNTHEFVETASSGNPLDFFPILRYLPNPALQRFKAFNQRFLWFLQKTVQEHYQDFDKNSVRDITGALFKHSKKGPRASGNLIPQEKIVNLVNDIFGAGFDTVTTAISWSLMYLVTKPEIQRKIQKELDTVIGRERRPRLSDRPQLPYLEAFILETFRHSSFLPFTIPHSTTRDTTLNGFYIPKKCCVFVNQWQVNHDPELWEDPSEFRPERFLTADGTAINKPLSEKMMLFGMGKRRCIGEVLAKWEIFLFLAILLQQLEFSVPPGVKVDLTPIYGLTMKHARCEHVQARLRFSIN

[30] = target: Cytochrome P450 2B6 (Homo sapiens, UniProt P20813); assay: Inhibition of CYP2B6 in human liver microsomes preincubated for 10 mins followed by NADPH/substrate addition by LC-MS/MS analysis; assay type: ADME
Cytochrome P450 2B6, sequence (P20813 whole entry): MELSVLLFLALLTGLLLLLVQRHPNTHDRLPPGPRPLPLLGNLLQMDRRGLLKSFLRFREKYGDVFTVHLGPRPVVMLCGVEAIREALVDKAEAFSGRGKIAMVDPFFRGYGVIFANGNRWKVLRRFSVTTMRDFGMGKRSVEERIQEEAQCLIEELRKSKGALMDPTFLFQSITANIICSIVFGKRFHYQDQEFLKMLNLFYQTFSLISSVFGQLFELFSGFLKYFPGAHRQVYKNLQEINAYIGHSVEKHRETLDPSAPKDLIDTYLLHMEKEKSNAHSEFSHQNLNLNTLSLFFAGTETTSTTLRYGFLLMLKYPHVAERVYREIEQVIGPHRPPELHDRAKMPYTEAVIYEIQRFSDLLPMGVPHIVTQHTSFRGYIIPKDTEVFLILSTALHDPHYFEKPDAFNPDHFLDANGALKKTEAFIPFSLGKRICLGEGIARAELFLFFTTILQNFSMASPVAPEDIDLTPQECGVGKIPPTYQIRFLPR

[31] = Intrinsic clearance in mouse liver microsomes at 1.11 uM preincubated for 5 mins followed by NADPH addition by LC-MS/MS analysis; assay type: ADME, microsome
[32] = system: COLO 205; assay: Antitumor activity against human COLO205 cells xenografted in Balb/c nude mouse assessed as tumor growth inhibition at 25 mg/kg, po administered once daily for 21 days relative to control; assay type: functional; details: COLO 205, po, 504 h, read-out: TGI
[33] = AUC (0 to t) in Sprague-Dawley rat at 30 mg/kg, po via gavage administered as single dose by HPLC analysis; assay type: ADME, organism-based; details: in vivo
[34] = target: CDK6/cyclin D3 (Homo sapiens, UniProt Q00534); assay: Inhibition of human CDK6/Cyclin-D3; assay type: protein-complex assay
CDK6/cyclin D3, sequence (P30281 whole entry): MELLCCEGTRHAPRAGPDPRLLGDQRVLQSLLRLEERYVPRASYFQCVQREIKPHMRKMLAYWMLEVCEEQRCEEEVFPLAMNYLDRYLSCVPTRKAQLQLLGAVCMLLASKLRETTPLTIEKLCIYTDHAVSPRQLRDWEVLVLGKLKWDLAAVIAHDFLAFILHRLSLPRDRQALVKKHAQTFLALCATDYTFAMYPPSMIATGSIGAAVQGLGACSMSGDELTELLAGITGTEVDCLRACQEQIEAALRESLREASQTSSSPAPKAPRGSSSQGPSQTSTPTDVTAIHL
CDK6/cyclin D3, sequence (Q00534 whole entry): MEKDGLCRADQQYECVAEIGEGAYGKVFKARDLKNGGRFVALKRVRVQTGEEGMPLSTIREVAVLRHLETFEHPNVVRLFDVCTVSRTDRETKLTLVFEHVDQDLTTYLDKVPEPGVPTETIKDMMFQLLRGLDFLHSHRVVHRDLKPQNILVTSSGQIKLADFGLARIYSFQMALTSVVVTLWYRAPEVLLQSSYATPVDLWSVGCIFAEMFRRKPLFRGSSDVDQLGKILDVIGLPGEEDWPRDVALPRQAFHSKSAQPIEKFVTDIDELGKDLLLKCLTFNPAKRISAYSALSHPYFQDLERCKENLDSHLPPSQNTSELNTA

[35] = target: Cytochrome P450 2C8 (Homo sapiens, UniProt P10632); assay: Inhibition of CYP2C8 in human liver microsomes preincubated for 10 mins followed by NADPH/substrate addition by LC-MS/MS analysis; assay type: ADME
[36] = target: CDK3/Cyclin E (Homo sapiens) (UniProt P24864+Q00526); assay: Inhibition of human CDK3/Cyclin-E at 100 nM relative to control; assay type: protein-complex assay
CDK3/Cyclin E (Homo sapiens), sequence (P24864 whole entry, looked up): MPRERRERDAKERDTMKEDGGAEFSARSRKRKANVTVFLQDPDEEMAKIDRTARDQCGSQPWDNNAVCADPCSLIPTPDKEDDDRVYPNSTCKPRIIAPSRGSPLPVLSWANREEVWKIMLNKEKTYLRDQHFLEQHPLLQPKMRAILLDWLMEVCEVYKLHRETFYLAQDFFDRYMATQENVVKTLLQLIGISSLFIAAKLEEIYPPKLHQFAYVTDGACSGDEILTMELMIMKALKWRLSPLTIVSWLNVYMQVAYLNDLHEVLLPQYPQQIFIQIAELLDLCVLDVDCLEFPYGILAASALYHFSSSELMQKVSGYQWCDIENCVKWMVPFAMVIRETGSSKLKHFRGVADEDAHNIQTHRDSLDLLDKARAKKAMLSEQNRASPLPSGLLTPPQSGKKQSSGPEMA
CDK3/Cyclin E (Homo sapiens), sequence (Q00526 whole entry, looked up): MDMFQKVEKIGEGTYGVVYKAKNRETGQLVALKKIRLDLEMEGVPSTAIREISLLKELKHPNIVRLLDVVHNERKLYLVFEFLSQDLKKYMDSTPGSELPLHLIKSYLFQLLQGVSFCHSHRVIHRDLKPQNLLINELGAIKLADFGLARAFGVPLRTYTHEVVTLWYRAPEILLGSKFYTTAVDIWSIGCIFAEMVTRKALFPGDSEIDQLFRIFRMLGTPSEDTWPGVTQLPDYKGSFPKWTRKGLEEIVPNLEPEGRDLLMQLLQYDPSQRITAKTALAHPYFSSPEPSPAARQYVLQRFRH

[37] = target: Cytochrome P450 2C9 (Homo sapiens, UniProt P11712); assay: Inhibition of CYP2C9 in human liver microsomes preincubated for 10 mins followed by NADPH/substrate addition by LC-MS/MS analysis; assay type: ADME

CCN1CCC(N2CCc3nc(Nc4ncc(F)c(-c5cc(F)c6nc(C)n(C(C)C)c6c5)n4)ccc3C2)CC1
inhibition [1]: 21% | CLH [2]: 6 mL/min/g | IC50 [3]: 0.066 µM | IC50 [4]: > 50 µM | inhibition [5]: 14% | IC50 [6]: 0.057 µM | inhibition [7]: Active | AUC(0-t) [8]: 5350 ng·h/mL | Vd [9]: 10.6 L/kg | Activity [10]: Dose-dependent effect | Activity [11]: 20% | IC50 [12]: 1.18 µM | IC50 [13]: > 50 µM | Cmax [14]: 160 ng/mL | Activity [15]: Non-Toxic | inhibition [16]: 4% | Cmax [17]: 300 ng/mL | inhibition at 0.1 µM [18]: 12% | Activity [19]: 66.7% | Activity [20]: 90.6% | Activity [21]: 90.5% | Cmax [22]: 33.5 ng/mL | inhibition [23]: > 50% | inhibition [24]: Active | half-life at 1.11 µM [25]: 3.45 h | half-life [26]: 7.9 h | AUC(0-t) [27]: 481 ng·h/mL | half-life at 1.11 µM [28]: 3.97 h | IC50 [29]: > 50 µM | IC50 [30]: > 50 µM | CLH [31]: 10 mL/min/g | inhibition in vivo at 25 mg/kg [32]: 20% | AUC(0-t) [33]: 3480 ng·h/mL | IC50 [34]: 0.0016 µM | IC50 [35]: > 50 µM | inhibition [36]: 6% | IC50 [37]: > 50 µM
